Data taken from patent publication US11718624B2, “Solid state forms of substituted pyrazolopyrimidines and uses thereof” (KSQ Therapeutics, Inc., priority 2020, dated 2023).
Read-outs that look alike come from different tables or passages of the source.

Experiments:
[1] = Mouse pharmacokinetic study, single oral dose, plasma; assay type: in vivo, NOD/SCID mice
Method: Mouse pharmacokinetic (PK) studies were conducted using Crystalline Form A of 6-(4-cyclopropyl-6-methoxypyrimidin-5-yl)-1-(4-(1-isopropyl-4-(trifluoromethyl)-1H-imidazol-2-yl)benzyl)-1H-pyrazolo[3,4-d]pyrimidine, as disclosed herein, Crystalline Form 2 of a gentisic acid co-crystal of 6-(4-cyclopropyl-6-methoxypyrimidin-5-yl)-1-(4-(1-isopropyl-4-(trifluoromethyl)-1H-imidazol-2-yl)benzyl)-1H-pyrazolo[3,4-d]pyrimidine, as disclosed herein, and Crystalline Form 8 of a benzoic acid co-crystal of 6-(4-cyclopropyl-6-methoxypyrimidin-5-yl)-1-(4-(1-isopropyl-4-(trifluoromethyl)-1H-imidazol-2-yl)benzyl)-1H-pyrazolo[3,4-d]pyrimidine, as disclosed herein.
The PK studies consisted of single dose oral exposure studies, which were conducted in female NOD/SCID mice (approximately 6 to 8 weeks, and 20-30 g at the time of study) using a compound dose of 300 mg/kg and a dosing volume of 10 mL/kg. The mice were fasted overnight prior to dosing. Animals had free access to food and water post-dosing.
(§1) Blood was sampled serially from the dorsal metatarsal vein at pre-dose, 0.25, 0.5, 1, 2, 4, 8, 24, 48 (crystalline Form 2 only), and 72 hours (crystalline Form 2 only) post PO dosing. Approximately 0.03 mL blood was collected at each time point and centrifuged at 4000 G for 5 minutes at 4° C. to provide plasma. The plasma samples were then stored in a freezer at −75±15° C. prior to LC-MS/MS analysis.
(§2) Concentrations of each compound in the plasma samples were then analyzed using an LC-MS/MS method. WinNonlin (Phoenix™, version 6.1) or other similar software was used for PK calculations. The following PK parameters were calculated, whenever possible from the plasma concentration versus time data: Cmax, Tmax, T1/2, AUCinf, and AUClast. The PK data were described using descriptive statistics such as mean with standard deviation.
Mouse pharmacokinetic (PK) studies were conducted using Crystalline Form 8 of 6-(4-cyclopropyl-6-methoxypyrimidin-5-yl)-1-(4-(1-isopropyl-4-(trifluoromethyl)-1H-imidazol-2-yl)benzyl)-1H-pyrazolo[3,4-d]pyrimidine, as disclosed herein.
as §1, with “8,” for “8, 24, 48 (crystalline Form 2 only),”, “24” for “72”, “hours” for “hours (crystalline Form 2 only)”
as §2, with “of” for “of each”

[2] = Distribution in mouse brain and plasma after repeated oral dosing; assay type: in vivo; details: female NOD SCID mice; for concentration at 4 h / Kp at 4 h: 4 h (Day 28); for concentration at 24 h / Kp at 24 h: 24 h (Day 28); for Kp at 4 h / Kp at 24 h: brain/plasma, read-out: B/P Ratio
Method: Female NOD SCID mice of an age between 6-8 weeks and a body weight range of 18-22 g were purchased from Beijing Anikeeper Biotech Co, Ltd. Animals were habituated to the environment for at least 7 days prior to study initiation. Mice were dosed with Crystalline Form 2 at either 100 mg/kg or 300 mg/kg dose levels via oral gavage for 28 days. After 24 hours following 27 doses of compound, three mice were euthanized via CO2. After four hours following 28 doses of compound, three mice were euthanized via CO2. At each time point the whole brain was collected. In addition, approximately 0.03 mL of blood was collected at each time point and centrifuged at 4000 G for 5 minutes at 4° C. to provide plasma. Samples were then stored in a freezer at −75±15° C. prior to LC-MS/MS analysis. Concentrations of compound in brain homogenates (ng/g) and plasma (ng/ml) were then analyzed using an LC-MS/MS method. The PK data were described using descriptive statistics such as mean with standard deviation.

[3] = Distribution in rat brain and plasma after single oral dose; assay type: in vivo, Sprague Dawley rats; details: single oral dose 100 mg/kg; for Kp / Cmax / Tmax / half-life / AUC(0-inf): Sprague Dawley, rat; for Kp: brain and plasma, read-out: B/P Conc. Ratio at tmax
Method: Male and female Sprague Dawley rats were purchased from Beijing Anikeeper Biotech Co, Ltd. Animals were habituated to the environment prior to study initiation. Rats were dosed with single dose of 100 mg/kg crystalline Form 2 via oral gavage. The rats were fasted overnight prior to dosing. Animals had access to food from 2 hours post dose and free access to water throughout the study. Approximately 0.2 mL of blood was sampled via jugular vein at each time point and centrifuged at 4000 G for 5 minutes at 4° C. to provide plasma. Samples were then stored in a freezer at −75±15° C. prior to LC-MS/MS analysis. Whole brain was collected after hemoperfusion and snap frozen on dry ice prior to storage at −75±15° C. Prior to LC-MS/MS analysis whole brains were weighed and homogenized with water by tissue weight (g) to water volume (ml) ratio 1:3 before analysis. Actual concentration is the measured value multiplied by the dilution factor. The PK data were described using descriptive statistics such as mean with standard deviation.

[4] = Mean, female NOD/SCID mice, single PO dose 300 mg/kg, plasma, 300 mg/kg
[5] = Mouse 8, single PO dose 300 mg/kg, plasma, 300 mg/kg
[6] = Mouse 9, single PO dose 300 mg/kg, plasma, 300 mg/kg
[7] = brain, 100 mg/kg QD oral gavage, read-out: Brain Conc.
[8] = brain, 300 mg/kg QD oral gavage, read-out: Brain Conc.
[9] = plasma, 100 mg/kg QD oral gavage, read-out: Plasma Conc.
[10] = plasma, 300 mg/kg QD oral gavage, read-out: Plasma Conc.
[11] = female, NOD/SCID, mouse, plasma, po, 300 mg/kg, Mouse 11, single PO dose 300 mg/kg
[12] = female, NOD/SCID, mouse, plasma, po, 300 mg/kg, Mouse 12, single PO dose 300 mg/kg

Q: For `COc1ncnc(C2CC2)c1-c1ncc2cnn(Cc3ccc(-c4nc(C(F)(F)F)cn4C(C)C)cc3)c2n1` [Crystalline Form 2, 6-(4-cyclopropyl-6-methoxypyrimidin-5-yl)-1-(4-(1-isopropyl-4-(trifluoromethyl)-1H-imidazol-2-yl)benzyl)-1H-pyrazolo[3,4-d]pyrimidine], which Cmax [1, 4] is on record?
A: 28900 ng/mL

Q: And the Tmax ([1]; Mouse 7, single PO dose 300 mg/kg, plasma)?
A: 8.00 h

Q: What about the AUClast [1, 5] of the same compound?
A: 835.713 µg·h/mL

Q: What about the Cmax [1, 5] of the same compound?
A: 28900 ng/mL

Q: What about the Cmax [1, 6] of the same compound?
A: 29000 ng/mL

Q: And the Tmax [1, 6]?
A: 12.0 h

Q: And the “mouse oral exposure levels compared with crystalline Form A (freebase)” value ([1]; at about 300 mg/kg)?
A: higher exposure levels

Q: What about the half-life ([1]; female, NOD/SCID, mouse, plasma, po, 300 mg/kg, Mouse 7, single PO dose 300 mg/kg) of the same compound?
A: 4.03 h

Q: What about the concentration at 4 h [2, 7] of the same compound?
A: 1520 ± 559 ng/g

Q: What about the concentration at 24 h [2, 7] of the same compound?
A: 19.5 ng/g

Q: And the concentration at 4 h [2, 8]?
A: 6500 ± 1050 ng/g

Q: What about the concentration at 24 h [2, 8] of the same compound?
A: 66.1 ± 81.7 ng/g

Q: What about the Kp at 4 h ([2]; 100 mg/kg QD oral gavage) of the same compound?
A: 0.306 ± 0.125

Q: And the Kp at 24 h ([2]; 100 mg/kg QD oral gavage)?
A: 0.091 ± 0.014

Q: What about the Kp at 4 h ([2]; 300 mg/kg QD oral gavage) of the same compound?
A: 0.424 ± 0.018

Q: And the Kp at 24 h ([2]; 300 mg/kg QD oral gavage)?
A: 0.102 ± 0.007

Q: What about the concentration at 4 h [2, 9] of the same compound?
A: 5040 ± 694 ng/mL

Q: What about the concentration at 24 h [2, 9] of the same compound?
A: 178 ± 165 ng/mL

Q: And the concentration at 4 h [2, 10]?
A: 15300 ± 2320 ng/mL

Q: What about the concentration at 24 h [2, 10] of the same compound?
A: 667 ± 852 ng/mL

Q: And the “AUC0−∞” value ([3]; Female SD rats, brain)?
A: 120933 ng·h/g

Q: And the “AUC0−∞” value ([3]; Male SD rats, brain)?
A: 60596 ng·h/g

Q: What about the Kp ([3]; Female SD rats) of the same compound?
A: 0.58

Q: What about the Kp ([3]; Male SD rats) of the same compound?
A: 0.731

Q: And the Cmax ([3]; Female SD rats, brain)?
A: 5610 ng/g

Q: What about the Tmax ([3]; Female SD rats, brain) of the same compound?
A: 8 h

Q: What about the half-life ([3]; Female SD rats, brain) of the same compound?
A: 12.8 h

Q: And the AUC(0-inf) ([3]; Female SD rats, plasma)?
A: 266 µg·h/mL

Q: And the Cmax ([3]; Female SD rats, plasma)?
A: 9760 ng/mL

Q: And the Tmax ([3]; Female SD rats, plasma)?
A: 8 h

Q: What about the half-life ([3]; Female SD rats, plasma) of the same compound?
A: 16.9 h

Q: And the Cmax ([3]; Male SD rats, brain)?
A: 3900 ng/g

Q: And the Tmax ([3]; Male SD rats, brain)?
A: 8 h

Q: And the half-life ([3]; Male SD rats, brain)?
A: 7.43 h

Q: What about the AUC(0-inf) ([3]; Male SD rats, plasma) of the same compound?
A: 102 µg·h/mL

Q: And the Cmax ([3]; Male SD rats, plasma)?
A: 5300 ng/mL

Q: And the Tmax ([3]; Male SD rats, plasma)?
A: 8 h

Q: What about the half-life ([3]; Male SD rats, plasma) of the same compound?
A: 9.13 h

Q: For `COc1ncnc(C2CC2)c1-c1ncc2cnn(Cc3ccc(-c4nc(C(F)(F)F)cn4C(C)C)cc3)c2n1` [Crystalline Form 8, 6-(4-cyclopropyl-6-methoxypyrimidin-5-yl)-1-(4-(1-isopropyl-4-(trifluoromethyl)-1H-imidazol-2-yl)benzyl)-1H-pyrazolo[3,4-d]pyrimidine], which Cmax [1, 4] is on record?
A: 14770 ng/mL

Q: What about the T1/2 [1, 4] of the same compound?
A: 6.8 h

Q: What about the Tmax [1, 4] of the same compound?
A: 3.50 h

Q: What about the AUClast ([1]; Mean, female NOD/SCID mice, single PO dose 300 mg/kg, plasma, sampling to 24 h (to 72 h for Form 2), 300 mg/kg) of the same compound?
A: 182.045 µg·h/mL

Q: And the AUC(0-t) ([1]; female, NOD/SCID, mouse, plasma, po, 300 mg/kg, Mouse 10, single PO dose 300 mg/kg)?
A: 145 µg·h/mL

Q: What about the Cmax ([1]; female, NOD/SCID, mouse, plasma, po, 300 mg/kg, Mouse 10, single PO dose 300 mg/kg, plasma, read-out: Cmax) of the same compound?
A: 8810 ng/mL

Q: What about the Tmax ([1]; female, NOD/SCID, mouse, plasma, po, 300 mg/kg, Mouse 10, single PO dose 300 mg/kg, plasma, read-out: Tmax) of the same compound?
A: 8 h

Q: And the AUC(0-t) [1, 11]?
A: 168 µg·h/mL

Q: And the half-life [1, 11]?
A: 11.4 h

Q: And the Cmax ([1]; female, NOD/SCID, mouse, plasma, po, 300 mg/kg, Mouse 11, single PO dose 300 mg/kg, plasma, read-out: Cmax)?
A: 18200 ng/mL

Q: And the Tmax ([1]; female, NOD/SCID, mouse, plasma, po, 300 mg/kg, Mouse 11, single PO dose 300 mg/kg, plasma, read-out: Tmax)?
A: 0.5 h

Q: What about the AUC(0-t) [1, 12] of the same compound?
A: 233 µg·h/mL

Q: What about the half-life [1, 12] of the same compound?
A: 2.08 h

Q: And the Cmax ([1]; female, NOD/SCID, mouse, plasma, po, 300 mg/kg, Mouse 12, single PO dose 300 mg/kg, plasma, read-out: Cmax)?
A: 17300 ng/mL

Q: And the Tmax ([1]; female, NOD/SCID, mouse, plasma, po, 300 mg/kg, Mouse 12, single PO dose 300 mg/kg, plasma, read-out: Tmax)?
A: 2 h

Q: What does the source list for `COc1ncnc(C2CC2)c1-c1ncc2cnn(Cc3ccc(-c4nc(C(F)(F)F)cn4C(C)C)cc3)c2n1` [Crystalline Form A, 6-(4-cyclopropyl-6-methoxypyrimidin-5-yl)-1-(4-(1-isopropyl-4-(trifluoromethyl)-1H-imidazol-2-yl)benzyl)-1H-pyrazolo[3,4-d]pyrimidine]?
A: Tmax [1, 6]: 4.00 h; Tmax ([1]; female, NOD/SCID, mouse, plasma, po, 300 mg/kg, Mouse 7, single PO dose 300 mg/kg, plasma, read-out: Tmax): 8 h; half-life ([1]; female, NOD/SCID, mouse, plasma, po, 300 mg/kg, Mouse 8, single PO dose 300 mg/kg): 6.79 h
